Assay results published in PubChem BioAssay AID328 (DTP/NCI, 2004).
Where “and” joins values, the source holds several entries; their conditions need not be identical. Identical values can stand only once. Inconclusive results and toxic doses are left out.

System: BDF1 mice, P388 leukemia ip, median survival T/C
Assay: NCI In Vivo Anticancer Drug Screen. Data for tumor model P388 Leukemia (intraperitoneal) in B6D2F1 (BDF1) mice
Conditions: endpoint: median survival time, higher = longer survival
How it was run: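 Mice carrying the transplantable tumour receive compound or vehicle. Survival is followed in each arm, and the treated measure is divided by the vehicle measure.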

[1] = dose: 50.0 mg/kg/injection, schedule: Q01DX009 (ip), vehicle: saline with Tween-80
[2] = dose: 66.0 mg/kg/injection, schedule: Q04DX003 (ip), vehicle: saline with Tween-80
[3] = dose: 100.0 mg/kg/injection, schedule: Q01DX009 (ip), vehicle: saline with Tween-80
[4] = dose: 100.0 mg/kg/injection, schedule: Q04DX003 (ip), vehicle: saline with Tween-80
[5] = dose: 200.0 mg/kg/injection, schedule: Q01DX009 (ip), vehicle: saline with Tween-80
[6] = dose: 200.0 mg/kg/injection, schedule: Q04DX003 (ip), vehicle: saline with Tween-80
[7] = dose: 400.0 mg/kg/injection, schedule: Q01DX009 (ip), vehicle: saline with Tween-80
[8] = dose: 400.0 mg/kg/injection, schedule: Q04DX003 (ip), vehicle: saline with Tween-80
[9] = dose: 100.0 mg/kg/injection, schedule: Q01DX009 (ip), vehicle: Klucel (hydroxypropylcellulose) (HPC)
[10] = dose: 200.0 mg/kg/injection, schedule: Q01DX009 (ip), vehicle: Klucel (hydroxypropylcellulose) (HPC)
[11] = dose: 12.5 mg/kg/injection, schedule: Q01DX009 (ip), vehicle: saline
[12] = dose: 25.0 mg/kg/injection, schedule: Q01DX009 (ip), vehicle: saline
[13] = dose: 50.0 mg/kg/injection, schedule: Q01DX009 (ip), vehicle: saline
[14] = dose: 100.0 mg/kg/injection, schedule: Q04DX003 (ip), vehicle: saline
[15] = dose: 3.12 mg/kg/injection, schedule: Q01DX009 (ip), vehicle: saline
[16] = dose: 6.25 mg/kg/injection, schedule: Q01DX009 (ip), vehicle: saline
[17] = dose: 50.0 mg/kg/injection, schedule: Q04DX003 (ip), vehicle: saline with Tween-80
[18] = dose: 100.0 mg/kg/injection, schedule: Q04DX003 (ip), vehicle: Klucel (hydroxypropylcellulose) (HPC)
[19] = dose: 200.0 mg/kg/injection, schedule: Q04DX003 (ip), vehicle: Klucel (hydroxypropylcellulose) (HPC)
[20] = dose: 400.0 mg/kg/injection, schedule: Q04DX003 (ip), vehicle: Klucel (hydroxypropylcellulose) (HPC)

## CC(C)CC1NC(=O)C(Cc2ccc(OCc3ccccc3)cc2)NC1=O (stereo not given)
dose: 40.0 mg/kg/injection, schedule: Q04DX003 (ip), vehicle: saline with Tween-80
  T/C: 95 % of control
[1]
  T/C: 101 % of control
[2]
  T/C: 91 % of control
[3]
  T/C: 95 % of control
[4]
  T/C: 87 % of control
dose: 166.0 mg/kg/injection, schedule: Q04DX003 (ip), vehicle: saline with Tween-80
  T/C: 95 % of control
[5]
  T/C: 93 % of control
[6]
  T/C: 111 % of control
dose: 276.0 mg/kg/injection, schedule: Q04DX003 (ip), vehicle: saline with Tween-80
  T/C: 91 % of control
[7]
  T/C: 96 % of control
[8]
  T/C: 111 % of control

## Cn1cnc([N+](=O)[O-])c1Sc1ncnc2c1ncn2C1OC(CO)C(O)C1O (stereo not given)
dose: 50.0 mg/kg/injection, schedule: Q01DX009 (ip), vehicle: Klucel (hydroxypropylcellulose) (HPC)
  T/C: 113 % of control
[9]
  T/C: 154 % of control
[10]
  T/C: 122 % of control

## CN(Cc1ccc(Nc2ccccc2)cc1)C1CCCCC1
dose: 50.0 mg/kg/injection, schedule: Q01DX009 (ip), vehicle: other
  T/C: 113 % of control
dose: 100.0 mg/kg/injection, schedule: Q01DX009 (ip), vehicle: other
  T/C: 160 % of control

## CC[N+]1(CC)CCOC(=O)C1
dose: 100.0 mg/kg/injection, schedule: Q01DX009 (ip), vehicle: saline
  T/C: 92 % of control
dose: 200.0 mg/kg/injection, schedule: Q01DX009 (ip), vehicle: saline
  T/C: 92 % of control
dose: 400.0 mg/kg/injection, schedule: Q01DX009 (ip), vehicle: saline
  T/C: 92 % of control

## COc1cc2c(cc1OC)C1CCN3CCCC3N1CC2 (stereo not given)
dose: 100.0 mg/kg/injection, schedule: Q01DX001 (ip), vehicle: Klucel (hydroxypropylcellulose) (HPC)
  T/C: 109 % of control
dose: 200.0 mg/kg/injection, schedule: Q01DX001 (ip), vehicle: Klucel (hydroxypropylcellulose) (HPC)
  T/C: 90 % of control

## COC(=O)c1[nH]cnc1/N=N\N(CCF)CCF
dose: 16.5 mg/kg/injection, schedule: Q01DX009 (ip), vehicle: saline with Tween-80
  T/C: 179 % of control
dose: 25.0 mg/kg/injection, schedule: Q01DX009 (ip), vehicle: saline with Tween-80
  T/C: 188 % of control
dose: 37.5 mg/kg/injection, schedule: Q01DX009 (ip), vehicle: saline with Tween-80
  T/C: 166 % of control
dose: 44.0 mg/kg/injection, schedule: Q04DX003 (ip), vehicle: saline with Tween-80
  T/C: 168 % of control
[2]
  T/C: 218 % of control
[4]
  T/C: 86 % of control

## CCN1CCCC(Nc2nc(Nc3cc(Cl)cc(Cl)c3)nc3cc(Cl)ccc23)C1 (stereo not given)
dose: 37.5 mg/kg/injection, schedule: Q01DX001 (ip), vehicle: saline sonified
  T/C: 120 % of control
dose: 75.0 mg/kg/injection, schedule: Q01DX001 (ip), vehicle: saline sonified
  T/C: 115 % of control
dose: 150.0 mg/kg/injection, schedule: Q01DX001 (ip), vehicle: saline sonified
  T/C: 120 % of control

## O=C1CN(C2CCCCC2)CC(=O)N2C(c3ccccc3)CCCN12 (stereo not given)
dose: 50.0 mg/kg/injection, schedule: Q01DX005 (ip), vehicle: saline with Tween-80
  T/C: 97 % of control
dose: 100.0 mg/kg/injection, schedule: Q01DX005 (ip), vehicle: saline with Tween-80
  T/C: 103 % of control
dose: 200.0 mg/kg/injection, schedule: Q01DX005 (ip), vehicle: saline with Tween-80
  T/C: 118 % of control

## C[N+]1(C2CCC3CCC2C3O)CCOCC1 (stereo not given)
[11]
  T/C: 91 % of control and 92 % of control
[12]
  T/C: 100 % of control
[13]
  T/C: 91 % of control and 92 % of control
[14]
  T/C: 100 % of control and 90 % of control
dose: 200.0 mg/kg/injection, schedule: Q04DX003 (ip), vehicle: saline
  T/C: 90 % of control

## Oc1ccccc1-c1nnc2n1N=C(c1ccc(-c3ccccc3)cc1)CS2
[1]
  T/C: 98 % of control
[3]
  T/C: 98 % of control
[5]
  T/C: 92 % of control

## CC1=CC=CC(C)(Cc2ccc(-c3ccc(CC4(C)C=CC=C(C)C4=O)cc3)cc2)C1=O (stereo not given)
dose: 25.0 mg/kg/injection, schedule: Q01DX001 (ip), vehicle: saline with Tween-80
  T/C: 95 % of control
dose: 50.0 mg/kg/injection, schedule: Q01DX001 (ip), vehicle: saline with Tween-80
  T/C: 95 % of control
dose: 100.0 mg/kg/injection, schedule: Q01DX001 (ip), vehicle: saline with Tween-80
  T/C: 90 % of control

## CS(C)=O.CS(C)=O.CS(C)=O.[Cl][Rh]([Cl])[Cl]
[15]
  T/C: 114 % of control
[16]
  T/C: 114 % of control
[11]
  T/C: 116 % of control
[12]
  T/C: 104 % of control and 116 % of control
[13]
  T/C: 116 % of control
dose: 50.0 mg/kg/injection, schedule: Q04DX003 (ip), vehicle: saline
  T/C: 100 % of control
[14]
  T/C: 109 % of control

## C=CCC1(CC)C(=O)NC(=O)NC1=O
[17]
  T/C: 91 % of control
[4]
  T/C: 91 % of control
[6]
  T/C: 91 % of control

## CCSC(C(OC(C)=O)C(OC(C)=O)C(OC(C)=O)C(COC(C)=O)OC(C)=O)n1cnc2c(=S)nc[nH]c21 (stereo not given)
dose: 12.5 mg/kg/injection, schedule: Q01DX005 (ip), vehicle: saline with Tween-80
  T/C: 98 % of control
dose: 25.0 mg/kg/injection, schedule: Q01DX005 (ip), vehicle: saline with Tween-80
  T/C: 95 % of control

## Nc1ncc2[nH]c(C(F)(F)F)nc2n1
[1]
  T/C: 102 % of control
[3]
  T/C: 102 % of control
[5]
  T/C: 105 % of control
[7]
  T/C: 117 % of control

## CN(C)Cc1cc(C(C)(C)CC(C)(C)C)ccc1O
dose: 100.0 mg/kg/injection, schedule: Q04DX002 (ip), vehicle: Klucel (hydroxypropylcellulose) (HPC)
  T/C: 114 % of control
dose: 200.0 mg/kg/injection, schedule: Q04DX002 (ip), vehicle: Klucel (hydroxypropylcellulose) (HPC)
  T/C: 99 % of control

## O=C(O)c1cc(-c2ccccc2)[nH]c1-c1ccccc1
[13]
  T/C: 90 % of control

## Nc1ncc([N+](=O)[O-])cn1
[9]
  T/C: 95 % of control
[10]
  T/C: 90 % of control

## CCCCSc1nc(N)nc2c1ncn2CC(C)CC (stereo not given)
[4]
  T/C: 100 % of control
[6]
  T/C: 100 % of control
[8]
  T/C: 100 % of control

## COc1ccc(CSc2ncnc3nc[nH]c23)cc1
[3]
  T/C: 95 % of control
[4]
  T/C: 100 % of control
[6]
  T/C: 100 % of control
[8]
  T/C: 87 % of control

## CCOC(=O)c1cc(C(=O)OCC)c(C#N)c(=O)[nH]1
[9]
  T/C: 96 % of control
[18]
  T/C: 91 % of control
[19]
  T/C: 91 % of control
dose: 400.0 mg/kg/injection, schedule: Q01DX009 (ip), vehicle: Klucel (hydroxypropylcellulose) (HPC)
  T/C: 92 % of control
[20]
  T/C: 100 % of control

## CCCCCCCCCCCCCC/[N+]([O-])=C/c1ccc([N+](=O)[O-])o1
dose: 6.25 mg/kg/injection, schedule: Q04DX002 (ip), vehicle: saline with Tween-80
  T/C: 91 % of control
dose: 12.5 mg/kg/injection, schedule: Q04DX002 (ip), vehicle: saline with Tween-80
  T/C: 100 % of control
dose: 25.0 mg/kg/injection, schedule: Q04DX002 (ip), vehicle: saline with Tween-80
  T/C: 87 % of control
dose: 200.0 mg/kg/injection, schedule: Q04DX002 (ip), vehicle: saline with Tween-80
  T/C: 88 % of control

## OCCC1(CCO)CCCCC1
dose: 10.0 mg/kg/injection, schedule: Q01DX009 (ip), vehicle: saline with Tween-80
  T/C: 100 % of control
dose: 20.0 mg/kg/injection, schedule: Q01DX009 (ip), vehicle: saline with Tween-80
  T/C: 105 % of control
dose: 40.0 mg/kg/injection, schedule: Q01DX009 (ip), vehicle: saline with Tween-80
  T/C: 110 % of control
[17]
  T/C: 109 % of control
[4]
  T/C: 100 % of control

## CCCCCCCCCCC(=O)OCC#CC#CCOC(=O)CCCCCCCCCC
[18]
  T/C: 104 % of control
[19]
  T/C: 104 % of control
[20]
  T/C: 100 % of control

## CS(=O)(=O)OCCN(CCOS(C)(=O)=O)c1cccc(C(F)(F)F)c1
dose: 33.0 mg/kg/injection, schedule: Q04DX003 (ip), vehicle: saline with Tween-80
  T/C: 155 % of control and 168 % of control
[17]
  T/C: 170 % of control and 190 % of control
dose: 75.0 mg/kg/injection, schedule: Q04DX003 (ip), vehicle: saline with Tween-80
  T/C: 236 % of control and 190 % of control

## O=C(/C(=C\c1ccccc1)CBr)c1ccc(Br)cc1
[15]
  T/C: 115 % of control
[16]
  T/C: 115 % of control
[11]
  T/C: 110 % of control
